Laboratory results taken from patent US9334500B2, “Methods and pharmaceutical compositions for treating cancer” (Agency for Science, Technology and Research, priority 2011, dated 2016).
Like-named read-outs stand apart in the source and are kept apart here.

Legend:
[1] = tested on: SUM159PT-R (Paclitaxel-resistant SUM159PT) cells; assay: Cell viability assay after Paclitaxel treatment; format: cell-based; settings: Paclitaxel-resistant SUM159PT with UBASH3B knockdown; 72 hrs
Protocol: Cell viability assay was performed and EC50 of Paclitaxel in each sample was determined and shown at the top. UBASH3B knockdown efficiency was assessed by Western blotting, shown at the bottom. *P<0.05, paired two-tailed t-test. Error bars, mean+SEM.
Cell viability was determined using CellTiter-Glo Luminescent Cell Viability Assay (Promega) as instructed by manufacturer's manual. 1000 cells were plated in 96-well plate and the readings were taken for 5 consecutive days using CellTiter-Glo kit (Promega).

MB231-LN = assay: Methylcellulose assay (anchorage-independent growth); settings: for EC50: Homo sapiens
ZEB1 and ZEB2 = assay: Western blot of ZEB1 and ZEB2 expression; format: cell-based, human; settings: MB231 and BT549 overexpressing mimics
Protocol: (§1) All siRNA were designed by 1st Base Singapore except for ETS1 siRNA#1 which was referenced from a previously published paper^7. Oligo miRNA mimics and antagomirs were purchased from Dharmacon, Inc. (Chicago, Ill., USA). For transfection, 30 nM siRNAs, 15 nM miRNA mimics or 100 nM iRNA antagomirs were used to transfect cells. 48 h after transfection cell pellets were collected and subjected indicated assays.
(§2) Western Blotting was performed as described previously^9. Anti-UBASH3B (ab34781) was purchased from Abcam. Anti-EGFR (cs2232), anti-CBL (cs2747) and anti-Pan phosphor-Tyr (cs9411) was purchased from Cell Signaling. Anti-ETS1 (sc350), anti-ZEB1 (sc-2538.8), and anti-ZEB2 (sc-48789) were obtained from Santa Cruz. Anti-Myc and anti-Actin were purchased from Roche Applied Science and Sigma-Aldrich, respectively.

UBASH3B expression = assay: Real-time PCR and Western blot analysis of UBASH3B expression; format: cell-based, human
Protocol: as §1
Total RNA including small RNAs was isolated using RNeasy Mini Kit (Qiagen). The microarray hybridization was performed using the Illumina HumanHT-12 V4.0 expression beadchip, and data analysis was performed using GeneSpring software from Agilent Technologies. Microarray data reported herein have been deposited at the NCBI Gene Expression Omnibus with the accession number GSE36693. Reverse transcription and quantitative PCR assays were performed using High Capacity cDNA Archive kit and KAPA SyBr Fast qPCR kit (KAPA Biosystems), respectively. TaqMan MicroRNA assays were used to quantify the level of mature miRNAs as previously described^8. Briefly, 10 ng of total RNA was reverse-transcribed and product was subjected to TaqMan stemloop miRNA assay (Applied Biosystems). RNU6B was used to normalize the data. For quantification of mRNA levels, 18S level was used as internal control. All reactions were analyzed in an Applied Biosystems 7500 Fast. Real-Time PCR system in 96-well plate format. Real-time primer sequences are listed in Supplementary Table 2.
as §2

UBASH3B 3'-UTR = assay: Luciferase reporter assay with UBASH3B 3'-UTR reporters; format: cell-based; settings: wild type vs miR-200a binding site mutated reporters; 40 nM mimics
Protocol: HCT116 cells were plated at a density of 5×10^4 cells per well in 24-well plate format and transfected with 10 ng of pMIR REPORT containing the respective miRNA responsive regions of UBASH3B 3′ UTR sequence, 40 nM of miRNA mimics and 5 ng of pRL null internal control simultaneously on the next day. At 48 h after transfection, the luciferase activities were measured using the Dual Luciferase system (Promega). All luciferase readings were first normalized to corresponding internal control pRL null Renilla luciferase readings. The resulting relative activities were further normalized to appropriate controls.

MB231-LN xenograft tumor = assay: MB231-LN subcutaneous xenograft tumor growth with Erlotinib treatment; format: in vivo, mice; settings: 100 mg/kg oral gavage, 6 days per week for 4 weeks
Protocol: All raw measurements were presented as mean±SEM (standard error of the mean). Comparisons of curves between primary tumor and BLI lung metastasis growth were performed using repeated Anova analysis. Survival analysis was performed using Kaplan-Meier estimator and log-rank test. The relative hazard ratio between different groups was calculated based on Cox-proportional hazards model and presented as HR (95% CI). Other comparisons were performed using unpaired two-sided Student's t-test without equal variance assumption or nonparametric Mann-Whitney test. All statistic calculations were performed with Excel, Stata 7 and EPI info. […] For in vivo Erlotinib treatment, both control cell and UBASH3B KD MB231-LN cells were subcutaneously injected into 6-8 week female nude mice at 5×10^6 cells, followed by treatment with vehicle or Erlotinib (LC lab, #E-4007) at 100 mg/kg by oral gavage with 6 consecutive days per week for 4 weeks after average tumor volume reached around 150 mm^3. Tumors were measured by calliper three times per week and tumors volume was calculated with formula: V=W*W*L/2.

CC(=O)O[C@H]1C(=O)[C@@]2(C)[C@H]([C@H](OC(=O)c3ccccc3)[C@]3(O)C[C@H](OC(=O)[C@H](O)[C@@H](NC(=O)c4ccccc4)c4ccccc4)C(C)=C1C3(C)C)[C@]1(OC(C)=O)CO[C@@H]1C[C@@H]2O [Paclitaxel]
sensitivity to Paclitaxel treatment [1]: increased sensitivity | EC50 (MB231-LN; read-out: EC50 of Paclitaxel, cells with UBASH3B depletion): 0.61 nM | EC50 (MB231-LN; read-out: EC50 of Paclitaxel, control cells, without UBASH3B depletion): 4.53 nM

miR-200a: oligo miRNA mimic purchased from Dharmacon (UAACACUGUCUGGUAACGAUGU; listed as RNA, chemistry not given here)
expression of ZEB1 and ZEB2 (ZEB1 and ZEB2): could repress | UBASH3B expression (UBASH3B expression; BT549 cells, miR-200a overexpression combined with ETS1 knockdown): more pronounced downregulation | UBASH3B mRNA and protein expression (UBASH3B expression; enforced expression of mimics in invasive breast and prostate cancer cells): able to reduce | targeting and inhibition of UBASH3B 3'-UTR reporter (UBASH3B 3'-UTR): direct and specific targeting and inhibition

N#CC(=C(/N)Sc1ccccc1N)/C(C#N)=C(\N)Sc1ccccc1N [U0126]
UBASH3B expression (UBASH3B expression; MB231 cells, 5 μM, real-time PCR, indicated time points): decrease the UBASH3B expression in a time-dependent manner

C#Cc1cccc(Nc2ncnc3cc(OCCOC)c(OCCOC)cc23)c1 [Erlotinib]
xenograft tumor growth response to Erlotinib (MB231-LN xenograft tumor; UBASH3B depleted tumors): irresponsive | xenograft tumor growth response to Erlotinib (MB231-LN xenograft tumor; control tumors): marked growth inhibition | EC50 (MB231-LN; read-out: EC50 of Erlotinib, MB231-LN cells with UBASH3B depletion): 3850 nM | EC50 (MB231-LN; read-out: EC50 of Erlotinib, MB231-LN control cells, without UBASH3B depletion): 450 nM | sensitivity of cells to Erlotinib treatment (MB231-LN; UBASH3B-depleted MB231 with ectopic overexpression of EGFR): restored the sensitivity
